Results on two molecules are retold here after publication PMC12581733, “Microbial Transglutaminase Increases Uptake and Translocation of Gliadin Peptides in the Human Intestinal Epithelium” (Molecular Nutrition & Food Research, 2025).

Series [1] concerns the target T1, TG2 (Homo sapiens, UniProt P21980).
T1 construct: purchased Zedira T022
T1 sequence (P21980 1-687): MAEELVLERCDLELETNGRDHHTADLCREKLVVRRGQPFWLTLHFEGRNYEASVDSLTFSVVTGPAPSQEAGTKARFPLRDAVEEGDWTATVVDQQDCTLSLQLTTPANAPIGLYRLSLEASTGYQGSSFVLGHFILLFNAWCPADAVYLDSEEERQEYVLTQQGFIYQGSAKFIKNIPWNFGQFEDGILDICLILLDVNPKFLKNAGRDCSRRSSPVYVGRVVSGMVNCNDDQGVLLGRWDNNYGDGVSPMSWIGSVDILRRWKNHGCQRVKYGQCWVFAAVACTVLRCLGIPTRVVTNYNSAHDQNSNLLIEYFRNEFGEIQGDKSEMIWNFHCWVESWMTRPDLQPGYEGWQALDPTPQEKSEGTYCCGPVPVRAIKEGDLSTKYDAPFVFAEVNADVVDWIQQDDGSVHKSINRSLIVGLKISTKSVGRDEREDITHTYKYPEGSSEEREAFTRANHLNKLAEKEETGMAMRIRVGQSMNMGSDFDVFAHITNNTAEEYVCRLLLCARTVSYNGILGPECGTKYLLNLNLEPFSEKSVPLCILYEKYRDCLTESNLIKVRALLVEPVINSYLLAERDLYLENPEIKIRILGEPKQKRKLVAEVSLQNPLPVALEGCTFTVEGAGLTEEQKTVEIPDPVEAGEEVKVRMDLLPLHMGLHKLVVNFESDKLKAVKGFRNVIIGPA
Kind of series: In vitro transamidation (crosslinking) of gliadin peptides, indirect ELISA, TG2. It counts as biochemical. The conditions noted are these: inhibitor 100 µM, Fig. 1A. The protocol: TG2 (10 nM, T022, Zedira, Darmstadt, Germany) or mTG (10 nM, T001, Zedira) were immobilized on a 96‐well plate (Sarstedt, Nümbrecht, Germany) in 50 mM Tris, 1 mM ethylenediamine tetraacetic acid (EDTA), 5 mM calcium chloride (pH 7.5) buffer containing 10 mM dithiotreitol (DTT, Merck KGaA, Darmstadt, Germany). After blocking with 2% bovine serum albumin (BSA, Carl Roth GmbH, Karlsruhe, Germany), the transglutaminase inhibitors ERW1041 (5095220001, Sigma–Aldrich, Darmstadt, Germany) and mTG‐blocker (C102, Zedira, each 100 µM) were applied according to protocol. Immobilized transglutaminases were incubated with biotin‐conjugated gliadin peptides or pepsin/trypsin digested gliadin (PTG, Table 2). Detection of crosslinked biotinylated gliadin peptides and PTG was done using horseradish peroxidase (HRP)‐conjugated streptavidin (1:2500, 405210, Biolegend, San Diego, CA, USA) or a specific gliadin antibody (1:1000, clone XGY4, Zedira) and the corresponding secondary HRP‐conjugated antibody (1:1000; sc‐516102, Santa Cruz Biotechnology, Dallas, TX, USA). The HRP‐substrate tetramethylbenzidine (TMB, T0440, Sigma–Aldrich, Darmstadt, Germany) was added, and photometric quantitation at 655 nm was performed after 15 min using a Clariostar Plus microplate reader (BMG Labtech, Ortenberg, Germany).
(ELISA stands for enzyme-linked immunosorbent assay.)

The target in series [2] is T1, TG2. Kind of series: Extracellular crosslinking of 5BP to the Caco-2 cell surface by TG2. It counts as cell-based. The following applies: 5BP 500 µM, TG2 100 nM, 1 h; dose-dependent; fluorometry and confocal microscopy. The method, then:
Confluent Caco‐2 cell monolayers were incubated with the transglutaminase substrate EZ‐link pentylamine‐biotin (5‐biotinamidopentylamine [5BP], 500 µM, 21345, Thermo Fisher Scientific) with or without mTG or TG2 (100 nM) in Tris buffer for 1 h. Corresponding transglutaminase inhibitors ERW1041 and mTG‐blocker were added to the solution at the indicated concentration. After fixation with 4% paraformaldehyde and blocking with 5% BSA, cells were incubated with streptavidin‐Alexa Fluor488 (S11223, 4 µg/mL, Thermo Fisher Scientific). Fluorometric quantitation was conducted using a FLUOstar Optima microplate reader (BMG Labtech, Ortenberg, Germany). For immunofluorescence microscopy, nuclei were stained with Hoechst dye (1:1000 in PBS, 44442, Thermo Fisher Scientific) for 10 min. Microscopy was done using a confocal laser scanning microscope (TE2000‐E, Nikon) and 20x Plan Apo […] objective. Image processing and quantitation were performed using ImageJ [32].

The target of series [3] is T1, TG2. Description: Immunoblot of gliadin-transglutaminase complexes. The following applies: TG2 1 µM, ERW1041 100 µM, 30 min, 37°C, n = 3. It counts as biochemical. The method, then:
TG2 or mTG (1 µM) was incubated with gliadin peptides (Table 2) with or without ERW1041 as TG2 blocker or the mTG‐blocker (100 µM) in Tris buffer. Biotinylated gliadin peptides or PTG was added to the solution at the indicated concentrations, and incubation was performed for 30 min at 37°C. The reaction was stopped by placing the samples on ice. Detailed description of the conditions for electrophoresis and blotting have been published elsewhere. After blocking the membrane for 1 h with 5% nonfat dry milk in phosphate buffered saline (PBS) + 2.5% tween, incubation with the primary antibody was performed at 4°C overnight (Table 3). The next day, incubation with the corresponding HRP‐conjugated secondary antibody was done. The crosslinking of biotinylated gliadin peptides was detected by streptavidin‐HRP alone. Visualization was done with the Super‐Signal West Femto kit (34096, Thermo Fisher Scientific, Langenselbold, Germany) for 5 min. Image processing and quantitation were performed using a ChemiDoc XRS+ imager and Image Lab software (BioRad Laboratories, Feldkirchen, Germany).
(In western blotting, separated proteins are transferred to a membrane and probed.)

Series [4] concerns Caco‐2 cells. The following applies: inhibitor 100 µM, TG2 100 nM, biotinylated P56-88 and P31-49; fluorometry.
The test system of series [5] is Caco‐2 cells. The conditions noted are these: inhibitor 100 µM, TG2 100 nM; immunofluorescence microscopy.
In series [6] the test system is Caco‐2 cells. Kind of series: Cell viability, PrestoBlue HS assay. It counts as cell-based, human. The following applies: used concentrations, 24 hours in culture medium; PrestoBlue HS 2 hours; Figure S1. The method, then: The effect of transglutaminases on the viability of Caco‐2 cells was investigated using the resazurin‐based PrestoBlue HS assay (P50200, Thermo Fisher Scientific) as described elsewhere. Details are provided in the Supporting Information.
Cells were incubated with mTG or TG2 at the indicated concentrations for 24 hours in culture medium. Incubation with PrestoBlue HS, diluted 1:10 in medium was performed for 2 hours at 37°C. Fluorometric examination was conducted using a Clariostar Plus microplate reader.

Regarding `O=C(NC[C@@H]1CC(Br)=NO1)[C@@H]1CCCN1C(=O)OCc1cnc2ccccc2c1` [ERW1041], the “Effect of inhibitor on TG2-mediated crosslinking of PTG” value at TG2 [1] is “significantly reduced crosslinking of PTG”. The “Effect of inhibitor on TG2-mediated crosslinking of 5BP to the cell surface” value on TG2 [2] is “reduced crosslinking of 5BP”. For the same molecule, on TG2 [3], the “Effect of inhibitor on transamidation of gliadin peptides to TG2” value is reported as “significantly reduced transamidation of all gliadin peptides to TG2”. Besides, the “Effect of inhibitor on TG2-mediated gliadin peptide uptake” value in the series with Caco‐2 cells [4] is listed as “to the baseline level”. Also, in the series on Caco‐2 cells [5], the “Effect of inhibitor on TG2-enhanced cellular uptake of P56-88” value was “reduced cellular peptide uptake to the baseline level”.

B1: TG2: transglutaminase 2 (T022, Zedira) (protein, UniProt P21980 2-687, looked up)
Protein-glutamine …: AEELVLERCDLELETNGRDHHTADLCREKLVVRRGQPFWLTLHFEGRNYEASVDSLTFSVVTGPAPSQEAGTKARFPLRDAVEEGDWTATVVDQQDCTLSLQLTTPANAPIGLYRLSLEASTGYQGSSFVLGHFILLFNAWCPADAVYLDSEEERQEYVLTQQGFIYQGSAKFIKNIPWNFGQFEDGILDICLILLDVNPKFLKNAGRDCSRRSSPVYVGRVVSGMVNCNDDQGVLLGRWDNNYGDGVSPMSWIGSVDILRRWKNHGCQRVKYGQCWVFAAVACTVLRCLGIPTRVVTNYNSAHDQNSNLLIEYFRNEFGEIQGDKSEMIWNFHCWVESWMTRPDLQPGYEGWQALDPTPQEKSEGTYCCGPVPVRAIKEGDLSTKYDAPFVFAEVNADVVDWIQQDDGSVHKSINRSLIVGLKISTKSVGRDEREDITHTYKYPEGSSEEREAFTRANHLNKLAEKEETGMAMRIRVGQSMNMGSDFDVFAHITNNTAEEYVCRLLLCARTVSYNGILGPECGTKYLLNLNLEPFSEKSVPLCILYEKYRDCLTESNLIKVRALLVEPVINSYLLAERDLYLENPEIKIRILGEPKQKRKLVAEVSLQNPLPVALEGCTFTVEGAGLTEEQKTVEIPDPVEAGEEVKVRMDLLPLHMGLHKLVVNFESDKLKAVKGFRNVIIGPA
B1: in the series with Caco‐2 cells [6], the “Effect on cell viability” value was “did not affect cell viability”.
